B1: pure β-chain: pure β-chain of hCG (protein, UniProt P0DN86 21-165, looked up)
Choriogonadotropin subunit …: SKEPLRPRCRPINATLAVEKEGCPVCITVNTTICAGYCPTMTRVLQGVLPALPQVVCNYRDVRFESIRLPGCPRGVNPVVSYAVALSCQCALCRRSTTDCGGPKDHPLTCDDPRFQDSSSSKAPPPSLPSPSRLPGPSDTPILPQ
B2: recombinant β-hCG (purified): purified recombinant β-hCG (protein, UniProt P0DN86 21-165, looked up)
Choriogonadotropin subunit …: B1 Choriogonadotropin subunit …
B3: partially purified β-hCG: native partially purified whole β-chain of hCG (protein, UniProt P0DN86 21-165, looked up)
Choriogonadotropin subunit …: B1 Choriogonadotropin subunit …

Legend:
[1] = test system: KS tumors and cells; test: Overall anti-KS activity of hCG preparations and peptides in vitro and in vivo; details: for anti-KS effects: in vitro and in vivo animal model data
[2] = test system: HIV; test: HIV assays (anti-viral effects)
[3] = test system: KS Y-1 or KS-SLK cells; test: KS clonogenic assay in methylcellulose; assay type: cell-based, human
Description: Briefly, the KS Y-1 cells were obtained from mononuclear cells isolated from pleural effusion of an AIDS patient with KS involving the lungs. After the depletion of T lymphocytes, monocytes/macrophages and fibroblasts by the cytotoxicity method, using monoclonal antibodies against CD2, CD3, CD4, CD8, CD10 and CD14 membrane antigens and baby rabbit complement, the cells were cultured in the absence of exogenous growth factors to select for transformed cells.

[4] = test system: KS Y-1 induced tumors; test: KS Y-1 tumors induced in immunodeficient mice; details: compared to β-hCG peptides 45-57 and 109-119

Molecule | anti-KS activity of other peptides [4] | inhibition in clonogenic assays [3] | further results
β-hCG peptide 109-119: synthetic peptide of amino acid numbers 109-119 of the beta subunit of hCG (TCDDPRFQDSS) |  |  | activities of native hCG preparations (anti-KS, anti-viral, pro-hematopoietic) mimicked or retained [1]: mimicked; anti-KS effects [1]: have anti-KS effects; anti-viral effects [2]: strongest anti-viral effects; anti-tumor (anti-KS) effects in clonogenic assays ([3]; 50 nmoles/ml, 2 KS neoplastic cell lines, 10 days): strongest anti-tumor effects
β-hCG peptide 55-90: β-hCG peptide 55-90, forms part of the β-core (VVCNYRDVRFESIRLPGCPRGVNPVVSYAVALSCQC; UniProt P0DN86 75-110, looked up, fragment) | slight activity |  | 
β-hCG peptide 7-40: β-hCG peptide of amino acids 7-40 (PRCRPINATLAVEKEGCPVCITVNTTICAGYCPT; UniProt P0DN86 27-60, looked up, fragment) |  | little or no inhibition | 
β-hCG peptide 57-93: β-hCG peptide of amino acids 57-93 (CNYRDVRFESIRLPGCPRGVNPVVSYAVALSCQCALC; UniProt P0DN86 77-113, looked up, fragment) | inactive | little or no inhibition | 
β-hCG peptide 34-49: β-hCG peptide of amino acids 34-49 (CAGYCPTMTRVLQGVL; UniProt P0DN86 54-69, looked up, fragment) | inactive | little or no inhibition | 
β-hCG peptide 6-40: β-hCG peptide 6-40, forms part of the β-core (RPRCRPINATLAVEKEGCPVCITVNTTICAGYCPT; UniProt P0DN86 26-60, looked up, fragment) | slight activity |  | 
β-hCG peptide 100-110: β-hCG peptide of amino acids 100-110 (CGGPKDHPLTC; UniProt P0DN86 120-130, looked up, fragment) | inactive | little or no inhibition | 
β-hCG peptide 93-100: β-hCG peptide of amino acids 93-100 (CRRSTTDC; UniProt P0DN86 113-120, looked up, fragment) | inactive |  | 
α-hCG peptide 88-92: α-hCG peptide of amino acids 88-92 (YYHKS; UniProt P01215 112-116, looked up, fragment) | inactive | little or no inhibition | 
β-hCG peptide 38-57: β-hCG peptide of amino acids 38-57, overlaps satellin A1 (CPTMTRVLQGVLPALPQVVC; UniProt P0DN86 58-77, looked up, fragment) | slight activity | little or no inhibition | 
β-hCG peptide 74-95: β-hCG peptide of amino acids 74-95 (RGVNPVVSYAVALSCQCALCRR; UniProt P0DN86 94-115, looked up, fragment) | inactive | little or no inhibition | 
B1 |  |  | anti-KS effect in clonogenic assays ([3]; pure subunit chains): no anti-KS effect
B2 |  |  | anti-KS effects [1]: little or no effect
B3 |  |  | anti-KS effects [1]: have anti-KS effects; anti-KS effects ([1]; listed as native partially purified whole β-chain): considerable anti-KS activity
